Structures can show the parent of a compound that is named as a salt.

T1 sequence (P14416 whole entry): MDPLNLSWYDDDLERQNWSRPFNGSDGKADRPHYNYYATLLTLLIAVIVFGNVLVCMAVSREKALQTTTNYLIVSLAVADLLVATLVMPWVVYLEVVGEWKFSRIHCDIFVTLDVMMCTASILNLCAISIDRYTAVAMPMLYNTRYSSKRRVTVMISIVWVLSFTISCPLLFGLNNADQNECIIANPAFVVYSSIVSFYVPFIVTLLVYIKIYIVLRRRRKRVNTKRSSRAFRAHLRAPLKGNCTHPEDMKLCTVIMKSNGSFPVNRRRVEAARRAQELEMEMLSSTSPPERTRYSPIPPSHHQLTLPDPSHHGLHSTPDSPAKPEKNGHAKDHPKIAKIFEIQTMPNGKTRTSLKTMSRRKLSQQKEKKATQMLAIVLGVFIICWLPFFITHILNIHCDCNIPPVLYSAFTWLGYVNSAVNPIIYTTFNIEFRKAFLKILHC

One series concerns the target T1, human D2L receptors (Homo sapiens, UniProt P14416).
Assay: not given
Settings: not given
As for `CN1CCN(CCCN2c3ccccc3Sc3ccc(C(F)(F)F)cc32)CC1` [Trifluoperazine, trifluoperazine dihydrochloride], the k off came to 0.00367 ± 0.00017 s⁻¹ and the k on was 1.10 ± 0.20 × 10^9 M^−1 min^−1.
As to `OCCN1CCN(CCC=C2c3ccccc3Sc3ccc(C(F)(F)F)cc32)CC1` [Flupenthixol, flupenthixol dihydrochloride], the “t 1/2” value is listed as 9.63 min.
Still for that read-out and setting: the same measure for (+)-butaclamol [(+)Butaclamol]: 26.65 min.

The target of the next series is D2R (Homo sapiens, UniProt P14416). Briefly: biochemical.
Sequence of D2R (P14416 whole entry): as above
Settings: not given
`CCc1c(C)[nH]c2c1C(=O)C(CN1CCOCC1)CC2` (centres unmarked) [Molindone, molindone hydrochloride] showed a k off of 0.0282 s⁻¹.
The same measure, in the same setting: the same measure for `Cc1nc2n(c(=O)c1CCN1CCC(c3noc4cc(F)ccc34)CC1)CCCC2O` (centres unmarked) [Paliperidone, paliperidone]: 0.0075 s⁻¹.

The target in a further series is T1, human D2L receptors. The series can be described thus: Equilibrium competition binding with PPHT-red (TR-FRET).
Settings: not given
(In general: TR-FRET usually uses a lanthanide donor and a delayed reading to cut background.)
In the case of `CN1CCN(CCCN2c3ccccc3Sc3ccc(C(F)(F)F)cc32)CC1` [Trifluoperazine, trifluoperazine dihydrochloride], the affinity, expressed as Ki, was 331 pM.
`O=C(CCCN1CC=C(n2c(=O)[nH]c3ccccc32)CC1)c1ccc(F)cc1` [Droperidol, droperidol] gave a Ki of 102 pM.
As to `CCc1c(C)[nH]c2c1C(=O)C(CN1CCOCC1)CC2` (centres unmarked) [Molindone, molindone hydrochloride], the Ki was 26900 pM.
Compound `OCCN1CCN(CCC=C2c3ccccc3Sc3ccc(C(F)(F)F)cc32)CC1` [Flupenthixol, flupenthixol dihydrochloride] showed a Ki of 209 pM.
Same read-out and setting: next, `Cc1nc2n(c(=O)c1CCN1CCC(c3noc4cc(F)ccc34)CC1)CCCC2O` (centres unmarked) [Paliperidone, paliperidone]: 2880 pM; `OCCN1CCN(CCCN2c3ccccc3Sc3ccc(Cl)cc32)CC1` [Perphenazine, perphenazine]: 295 pM.

Test system in another series: not given
Assay: not given
The note with it: clinical; cited from earlier work.
`O=C1CCc2ccc(OCCCCN3CCN(c4cccc(Cl)c4Cl)CC3)cc2N1` [aripiprazole]: the “propensity to cause prolactin release, in words” value is “very little propensity to cause prolactin release”.

A further series concerns the target T1, human D2L receptors. The series can be described thus: biochemical.
Settings: not given
With `CN1CCN(CCCN2c3ccccc3Sc3ccc(C(F)(F)F)cc32)CC1` [Trifluoperazine, trifluoperazine dihydrochloride], the affinity, expressed as Kd, was 204 pM.
Still for that read-out and setting: the same measure for `O=C(CCCN1CC=C(n2c(=O)[nH]c3ccccc32)CC1)c1ccc(F)cc1` [Droperidol, droperidol]: 195 pM; for `CCc1c(C)[nH]c2c1C(=O)C(CN1CCOCC1)CC2` (centres unmarked) [Molindone, molindone hydrochloride]: 20400 pM; for `OCCN1CCN(CCC=C2c3ccccc3Sc3ccc(C(F)(F)F)cc32)CC1` [Flupenthixol, flupenthixol dihydrochloride]: 214 pM.
Still for that read-out and setting: the same measure for `Cc1nc2n(c(=O)c1CCN1CCC(c3noc4cc(F)ccc34)CC1)CCCC2O` (centres unmarked) [Paliperidone, paliperidone]: 2510 pM; for `OCCN1CCN(CCCN2c3ccccc3Sc3ccc(Cl)cc32)CC1` [Perphenazine, perphenazine]: 186 pM.

Test system in another series: not given
Assay: not given
The settings on record: cited from earlier work.
In the case of `OCCOCCN1CCN(C2=Nc3ccccc3Sc3ccccc32)CC1` [Quetiapine, quetiapine hemifumarate], the “plasma half-life, in words” value was “short”.

A further series deals with T1, human D2L receptors. Briefly: Competition kinetic binding with PPHT-red tracer (TR-FRET, Motulsky-Mahan).
Settings: not given
For `OCCN1CCN(CCC=C2c3ccccc3Sc3ccc(C(F)(F)F)cc32)CC1` [Flupenthixol, flupenthixol dihydrochloride], the k off was determined as 0.0012 ± 0.000167 s⁻¹ and the k on is reported as 3.50 ± 0.72 × 10^8 M^−1 min^−1.

The same series, now with this note: 37 °C, 100 μM GppNHp, 12.5 nM PPHT-red tracer, CHO-D2L membranes; mean ± s.e.m., four experiments.
Take `O=C(CCCN1CC=C(n2c(=O)[nH]c3ccccc32)CC1)c1ccc(F)cc1` [Droperidol, droperidol]: the k off was 0.00633 ± 0.00067 s⁻¹ and the k on is given as 2.01 ± 0.38 × 10^9 M^−1 min^−1.
On to `CCc1c(C)[nH]c2c1C(=O)C(CN1CCOCC1)CC2` (centres unmarked) [Molindone, molindone hydrochloride], for which the k off was found to be 0.0282 ± 0.0075 s⁻¹ and the k on was 8.69 ± 2.6 × 10^7 M^−1 min^−1.
For `Cc1nc2n(c(=O)c1CCN1CCC(c3noc4cc(F)ccc34)CC1)CCCC2O` (centres unmarked) [Paliperidone, paliperidone], in that order: 0.00733 ± 0.00067 s⁻¹ and 1.80 ± 0.29 × 10^8 M^−1 min^−1.
Take `OCCN1CCN(CCCN2c3ccccc3Sc3ccc(Cl)cc32)CC1` [Perphenazine, perphenazine]: the k off amounted to 0.00383 ± 0.00033 s⁻¹ and the k on was 1.29 ± 0.17 × 10^9 M^−1 min^−1.

The same series, now with this note: dissociation half-life from k off.
For `CN1CCN(CCCN2c3ccccc3Sc3ccc(C(F)(F)F)cc32)CC1` [Trifluoperazine, trifluoperazine dihydrochloride], the “t 1/2” value is 3.15 min.
Still for that read-out and setting: next, `O=C(CCCN1CC=C(n2c(=O)[nH]c3ccccc32)CC1)c1ccc(F)cc1` [Droperidol, droperidol]: 1.82 min; `CN(C)CCOC1=Cc2ccccc2Sc2ccc(Cl)cc21` [Zotepine, zotepine]: 0.49 min; `CCc1c(C)[nH]c2c1C(=O)C(CN1CCOCC1)CC2` (centres unmarked) [Molindone, molindone hydrochloride]: 0.41 min.
Still for that read-out and setting: the same measure for `CN1CCN(C2=Nc3ccccc3Oc3ccc(Cl)cc32)CC1` [Loxapine, loxapine succinate]: 0.32 min; for `CNc1cc(OC)c(C(=O)NC2CCN(Cc3ccccc3)C2C)cc1Cl` (centres unmarked) [Nemonapride, nemonapride]: 38.50 min.
Turning to `CCN1CCC[C@H]1CNC(=O)c1c(O)c(Cl)cc(Cl)c1OC` [Raclopride, raclopride], the “t 1/2” value is recorded as 1.31 min.
The same measure, in the same setting: the same measure for `Cc1nc2n(c(=O)c1CCN1CCC(c3noc4cc(F)ccc34)CC1)CCCC2O` (centres unmarked) [Paliperidone, paliperidone]: 1.58 min; for `O=C1NCCN1CCN1CCC(c2cn(-c3ccc(F)cc3)c3ccc(Cl)cc23)CC1` [Sertindole, sertindole]: 1.17 min.
On the same count and under the same terms, the same measure for `CN1CC2c3ccccc3Oc3ccc(Cl)cc3C2C1` (centres unmarked) [Asenapine, asenapine maleate]: 0.75 min.
Same read-out and setting: the same measure for `OCCN1CCN(CCCN2c3ccccc3Sc3ccc(Cl)cc32)CC1` [Perphenazine, perphenazine]: 3.01 min; for `OCCN1CCN(CCCN2c3ccccc3Sc3ccc(C(F)(F)F)cc32)CC1` [Fluphenazine, fluphenazine dihydrochloride]: 17.33 min.
Turning to `O=C(CCCN1CCC2(CC1)C(=O)NCN2c1ccccc1)c1ccc(F)cc1` [Spiperone, spiperone], the “t 1/2” value worked out at 18.24 min.
Consider `O=C1Cc2cc(CCN3CCN(c4nsc5ccccc45)CC3)c(Cl)cc2N1` [Ziprasidone, ziprasidone hydrochloride monohydrate], for which the “t 1/2” value amounted to 0.65 min.

As a reminder, the Ki is the equilibrium dissociation constant of an inhibitor or competing ligand from its target. Read a low Ki as tighter binding. Broadly, the Kd is the equilibrium constant for the complex coming apart.
